Data as given in US11779560B2 (priority 2020, dated 2023).

Key:
Conditions in all cases: 10-100 μM concentrations
[1] = tested on: HMEC-1 human dermal endothelial cells; assay: Cell TiterGlo ATP Luminescent Cell Viability assay (total cellular ATP); format: cell-based
Protocol: The Cell TiterGlo ATP Luminescent Cell Viability assay (Promega Cat. #G7571) was run to measure total cellular ATP in response to compound treatment. Assays were performed using HMEC-1 human dermal endothelial cells. Compounds were screened using 8-point ½ log dilutions in duplicate in the presence of vehicle.

[2] = tested on: HMEC-1 human dermal endothelial cells; assay: Mitochondrial stress test (Agilent Seahorse XFe96); format: cell-based
Protocol: A mitochondrial stress test was also conducted to determine the effects of the experimental compounds on cellular mitochondria. Assays were conducted using HMEC-1 human dermal endothelial cells optimized for use with the Agilent Seahorse XFe96 analyzer. HMEC-1 cells were obtained from ATCC and cultured in accordance with the supplier's guidelines: complete cell culture media consisted of MCD 131 supplemented with 10 ng/ml EGF 1 μg/ml hydrocortisone, 10 mM glutamine, 10% FBS, and 1% penicillin/streptomycin. To determine optimal cell seeding densities, cells were seeded in Agilent XF96 cell culture microplates at 80,000 cells/well at the highest concentration. […] Cell viability was assessed using trypan blue exclusion. […] (non-CO2) for 1 hour and imaged with a Cytation 5 imaging multimode plate reader (BioTek instruments) and analyzed using Prism 9.0 (GraphPad Software.) The stress test profile cycled through 18 minute exposures to oligomycin 1 μg/ml, FCCP 2 μM and antimycin A 10 μM/rotenone 1 μM. At the completion of the mitochondrial stress test, cells were imaged and Hoechst positive nuclei were quantified using the Seahorse Cell Analysis software. All data were analyzed using Wave Analysis software (version 2.6.1.53) and Prism 9.0 (GraphPad software). […]

[3] = tested on: mitochondrial electron transport chain and ATP synthase (Complex I-V); assay: MitoCheck Complex I-V activity assays in isolated mitochondria; format: biochemical, bovine
Protocol: MitoCheck Complex I-V activity assays were conducted in an Agilent Seahorse XFe96 analyzer to determine the effects of compounds on the mitochondrial electron transport chain and ATP synthase in isolated mitochondria. Compounds were screened in a dose dependent manner using 10-point ½ log dilutions in quadruplicate along with a […] for each of the five complexes.
Complex I activity was determined using an assay that measures the rotenone-sensitive rate of NADH oxidation by complex I in isolated bovine heart mitochondria. To prevent oxidation of ubiquinol by complex III, KCN (1 mM) was present to inhibit the downstream electron transport chain. […]
Complex II activity was determined using an assay that measures the succinate dependent rate of DCPIP reduction in isolated bovine heart mitochondria. […]
Complex III activity was determined using an assay measures the rate of cytochrome c reduction by the passage of electrons from complex II to complex III via ubiquinone in isolated bovine heart mitochondria. […]
Complex IV activity was determined using an assay that measures the rate of cytochromec oxidation by complex IV in isolated bovine heart mitochondria. […]
Complex V activity was determined using an assay that measures the rate of […] resulting from a series of coupled reactions linked to the hydrolysis of ATP by complex V in isolated bovine heart mitochondria. […]

O=C(CO)NCCCN[C@@H]1CO[C@H]2[C@@H]1OC[C@@H]2O[N+](=O)[O-] [CR-0305, (3S,3aS,6R,6aR)-6-((3-(2-hydroxyacetamido)propyl)amino)hexahydrofuro[3,2-b]furan-3-yl nitrate]
No significant toxicity: Toxicity, effect of drug on ATP synthesis [1] | Toxicity, mitochondrial stress test [2] | Toxicity, MitoCheck Complex I-V activity [3]
